From patent US7759337B2, “Phthalazine compounds and methods of use” (Amgen Inc., priority 2005, dated 2010)

The molecules below were run on production of TNF by monocytes activated with bacterial lipopolysaccharide (LPS) (assay: Lipopolysaccharide-activated monocyte TNF production assay). Settings: Homo sapiens; whole blood monocyte assay (LPS induced TNF release).
Assay type: cell-based
Method in brief: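 Adherent human PBMC-derived monocytes preincubated 60 min with nine two-fold compound dilutions, then stimulated with E. coli K532 LPS (30 ng/mL in the added medium) for 4 h at 37 °C. Supernatant TNF measured by sandwich ELISA; IC50 is the compound concentration halving TNF production, from second-order polynomial fits.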

Row | SMILES | IC50 [µM]
1 | CSc1ccc(-c2nncc3cc(-c4cc(C(=O)NC5CC5)ccc4C)ccc23)c(C)c1 [Example 261, N-cyclopropyl-4-methyl-3-{1-[2-methyl-4-(methylsulfanyl)phenyl]phthalazin-6-yl}benzamide] | ≤ 5
2 | COc1cc(F)ccc1-c1nncc2cc(-c3cc(C(=O)NC4CC4)ccc3C)ccc12 [Example 262, N-cyclopropyl-3-[1-(4-fluoro-2-methoxyphenyl)phthalazin-6-yl]-4-methylbenzamide] | ≤ 5
3 | Cc1ccc(C(=O)NC2CC2)cc1-c1ccc2c(-c3ccncc3C)nncc2c1 [Example 263, N-cyclopropyl-4-methyl-3-[1-(3-methylpyridin-4-yl)phthalazin-6-yl]benzamide] | ≤ 5
4 | COc1ncc(-c2nncc3cc(-c4cc(C(=O)NC5CC5)ccc4C)ccc23)cn1 [Example 264, N-cyclopropyl-3-[1-(2-methoxypyrimidin-5-yl)phthalazin-6-yl]-4-methylbenzamide] | ≤ 5
5 | Cc1ccc(C(=O)N(C)C)cc1-c1ccc2c(N3CCOCC3)nncc2c1 [Example 265, N,N,4-trimethyl-3-(1-morpholin-4-ylphthalazin-6-yl)benzamide] | ≤ 5
6 | Cc1ccc(C(=O)NC2CC2)cc1-c1ccc2c(N3CCCOCC3)nncc2c1 [Example 266, N-cyclopropyl-4-methyl-3-[1-(1,4-oxazepan-4-yl)phthalazin-6-yl]benzamide] | ≤ 5
7 | Cc1ccc(C(=O)NC2CC2)cc1-c1ccc2c(N3CCN4C(=O)CC[C@@H]4C3)nncc2c1 [Example 267, 3-{1-[(8aR)-6-oxohexahydropyrrolo[1,2-a]pyrazin-2(1H)-yl]phthalazin-6-yl}-N-cyclopropyl-4-methylbenzamide] | ≤ 5
8 | Cc1ccc(C(=O)NC2CCC2)cc1-c1ccc2c(N3CCN4C(=O)OC[C@@H]4C3)nncc2c1 [Example 269, 3-{1-[(8aS)-3-oxotetrahydro[1,3]oxazolo[3,4-a]pyrazin-7(1H)-yl]phthalazin-6-yl}-N-cyclobutyl-4-methylbenzamide] | ≤ 5
9 | Cc1ccc(C(N)=O)cc1-c1ccc2c(N3CCCOCC3)nncc2c1 [Example 270, 4-methyl-3-[1-(1,4-oxazepan-4-yl)phthalazin-6-yl]benzamide] | ≤ 5
10 | Cc1ccc(C(=O)NC2CC2)cc1-c1ccc2c(N3CCNC(=O)[C@@H]3C)nncc2c1 [Example 271, N-cyclopropyl-4-methyl-3-{1-[(2S)-2-methyl-3-oxopiperazin-1-yl]phthalazin-6-yl}benzamide] | ≤ 5
11 | Cc1ccc(C(=O)NC2CC2)cc1-c1ccc2c(N3CCC[C@H]3C(F)(F)F)nncc2c1 [Example 273, N-cyclopropyl-4-methyl-3-{1-[(2S)-2-(trifluoromethyl)pyrrolidin-1-yl]phthalazin-6-yl}benzamide] | ≤ 5
12 | Cc1ccc(C(=O)NC2CC2)cc1-c1ccc2c(N3CCN4CCC[C@H]4C3)nncc2c1 [Example 274, 3-{1-[(8aS)-hexahydropyrrolo[1,2-a]pyrazin-2(1H)-yl]phthalazin-6-yl}-N-cyclopropyl-4-methylbenzamide] | ≤ 5
13 | Cc1ccc(C(=O)NC2CC2)cc1-c1ccc2c(N3CCNC(=O)CC3)nncc2c1 [Example 275, N-cyclopropyl-4-methyl-3-[1-(5-oxo-1,4-diazepan-1-yl)phthalazin-6-yl]benzamide] | ≤ 5
14 | Cc1ccc(C(=O)NC2CC2)cc1-c1cnc2c(N3CCOCC3)nncc2c1 [Example 276, N-cyclopropyl-4-methyl-3-(8-morpholin-4-ylpyrido[2,3-d]pyridazin-3-yl)benzamide] | ≤ 5
15 | Cc1ccc(C(N)=O)cc1-c1ccc2c(N3CCNC(=O)CC3)nncc2c1 [Example 277, 4-methyl-3-[1-(5-oxo-1,4-diazepan-1-yl)phthalazin-6-yl]benzamide] | ≤ 5
16 | CONC(=O)c1ccc(C)c(-c2ccc3c(N4CCOCC4)nncc3c2)c1 [Example 278, N-methoxy-4-methyl-3-(1-morpholin-4-ylphthalazin-6-yl)benzamide] | ≤ 5
17 | CONC(=O)c1ccc(C)c(-c2ccc3c(NC(C)C)nncc3c2)c1 [Example 279, 3-[1-(isopropylamino)phthalazin-6-yl]-N-methoxy-4-methylbenzamide] | ≤ 5
18 | Cc1ccc(C(N)=O)cc1-c1ccc2c(N3CCN4C(=O)OC[C@@H]4C3)nncc2c1 [Example 280, 3-{1-[(8aS)-3-oxotetrahydro[1,3]oxazolo[3,4-a]pyrazin-7(1H)-yl]phthalazin-6-yl}-4-methylbenzamide] | ≤ 5
19 | Cc1ccc(C(N)=O)cc1-c1ccc2c(N(C)C)nncc2c1 [Example 281, 3-[1-(dimethylamino)phthalazin-6-yl]-4-methylbenzamide] | ≤ 5
20 | Cc1ccc(C(N)=O)cc1-c1ccc2c(N3CCN4CCC[C@H]4C3)nncc2c1 [Example 282, 3-{1-[(8aS)-hexahydropyrrolo[1,2-a]pyrazin-2(1H)-yl]phthalazin-6-yl}-4-methylbenzamide] | ≤ 5
21 | Cc1ccc(C(=O)NC2CCC2)cc1-c1ccc2c(N(C)C)nncc2c1 [Example 283, N-cyclobutyl-3-[1-(dimethylamino)phthalazin-6-yl]-4-methylbenzamide] | ≤ 5

Row | SMILES | IC50 [µM]
22 | Cc1ccc(C(N)=O)cc1-c1ccc2c(N3CCN4C(=O)OC[C@H]4C3)nncc2c1 [Example 284, 3-{1-[(8aR)-3-oxotetrahydro[1,3]oxazolo[3,4-a]pyrazin-7(1H)-yl]phthalazin-6-yl}-4-methylbenzamide] | ≤ 5
23 | Cc1ccc(C(N)=O)cc1-c1ccc2c(N3CCN4C(=O)CC[C@H]4C3)nncc2c1 [Example 285, 3-{1-[(8aS)-6-oxohexahydropyrrolo[1,2-a]pyrazin-2(1H)-yl]phthalazin-6-yl}-4-methylbenzamide] | ≤ 5
24 | Cc1ccc(C(=O)NC2CC2)cc1-c1ccc2c(-c3ccc(F)cc3C)nncc2c1 [Example 286, N-cyclopropyl-3-[1-(4-fluoro-2-methylphenyl)phthalazin-6-yl]-4-methylbenzamide] | ≤ 5
25 | Cc1ccc(C(=O)NC2CC2)cc1-c1ccc2c(-c3c[nH]c(=O)cc3C)nncc2c1 [Example 287, N-cyclopropyl-4-methyl-3-[1-(4-methyl-6-oxo-1,6-dihydropyridin-3-yl)phthalazin-6-yl]benzamide] | ≤ 5
26 | Cc1ccc(C(=O)NC2CC2)cc1-c1ccc2c(O)nncc2c1 [Example 288, N-cyclopropyl-3-(1-hydroxyphthalazin-6-yl)-4-methylbenzamide] | ≤ 5
27 | Cc1ccc(C(=O)NC2CC2)cc1-c1ccc2c(N(C)C3CCCCC3)nncc2c1 [Example 289, 3-{1-[cyclohexyl(methyl)amino]phthalazin-6-yl}-N-cyclopropyl-4-methylbenzamide] | ≤ 5
28 | Cc1ccc(C(=O)NC2CC2)cc1-c1ccc2c(N(C)C(C)C)nncc2c1 [Example 290, N-cyclopropyl-3-{1-[isopropyl(methyl)amino]phthalazin-6-yl}-4-methylbenzamide] | ≤ 5
29 | Cc1ccc(C(N)=O)cc1-c1ccc2c(N(C)C3CCCCC3)nncc2c1 [Example 291, 3-{1-[cyclohexyl(methyl)amino]phthalazin-6-yl}-4-methylbenzamide] | ≤ 5
30 | Cc1ccc(C(N)=O)cc1-c1ccc2c(N(C)C(C)C)nncc2c1 [Example 292, 3-{1-[isopropyl(methyl)amino]phthalazin-6-yl}-4-methylbenzamide] | ≤ 5
31 | Cc1ccc(C(=O)NC2CC2)cc1-c1ccc2c(N3CCC[C@H]3C(C)C)nncc2c1 [Example 293, N-cyclopropyl-3-{1-[(2S)-2-isopropylpyrrolidin-1-yl]phthalazin-6-yl}-4-methylbenzamide] | ≤ 5
32 | Cc1ccc(C(N)=O)cc1-c1ccc2c(N3CCn4c(nnc4C(F)(F)F)C3)nncc2c1 [Example 294, 4-methyl-3-{1-[3-(trifluoromethyl)-5,6-dihydro[1,2,4]triazolo[4,3-a]pyrazin-7(8H)-yl]phthalazin-6-yl}benzamide] | ≤ 5
33 | Cc1ccc(C(=O)NC2CC2)cc1-c1ccc2c(N3CCC[C@@H]3C)nncc2c1 [Example 295, N-cyclopropyl-4-methyl-3-{1-[(2S)-2-methylpyrrolidin-1-yl]phthalazin-6-yl}benzamide] | ≤ 5
34 | Cc1ccc(C(=O)NC2CC2)cc1-c1ccc2c(N3CCC[C@H]3C)nncc2c1 [Example 296, N-cyclopropyl-4-methyl-3-{1-[(2R)-2-methylpyrrolidin-1-yl]phthalazin-6-yl}benzamide] | ≤ 5
35 | Cc1ccc(C(=O)NC2CC2)cc1-c1ccc2c(NC[C@H]3CCCO3)nncc2c1 [Example 297, N-cyclopropyl-4-methyl-3-(1-{[(2R)-tetrahydrofuran-2-ylmethyl]amino}phthalazin-6-yl)benzamide] | ≤ 5
36 | CC[C@H](C)Nc1nncc2cc(-c3cc(C(=O)NC4CC4)ccc3C)ccc12 [Example 298, N-cyclopropyl-4-methyl-3-(1-{[(1S)-1-methylpropyl]amino}phthalazin-6-yl)benzamide] | ≤ 5
37 | Cc1ccccc1Oc1nncc2cc(-c3cc(C(N)=O)ccc3C)ccc12 [Example 299, 4-methyl-3-[1-(2-methylphenoxy)phthalazin-6-yl]benzamide] | ≤ 5
38 | Cc1ccc(C(N)=O)cc1-c1ccc2c(Oc3cccnc3C)nncc2c1 [Example 300, 4-methyl-3-{1-[(2-methylpyridin-3-yl)oxy]phthalazin-6-yl}benzamide] | ≤ 5
39 | Cc1ccc(C(N)=O)cc1-c1ccc2c(Oc3ccc(F)cc3)nncc2c1 [Example 301, 3-[1-(4-fluorophenoxy)phthalazin-6-yl]-4-methylbenzamide] | ≤ 5
40 | CC[C@H](C)Oc1nncc2cc(-c3cc(C(=O)NC4CC4)ccc3C)ccc12 [Example 302, N-cyclopropyl-4-methyl-3-(1-{[(1S)-1-methylpropyl]oxy}phthalazin-6-yl)benzamide] | ≤ 5
41 | CC[C@H](C)Nc1nncc2cc(-c3cc(C(N)=O)ccc3C)ccc12 [Example 303, 4-methyl-3-(1-{[(1S)-1-methylpropyl]amino}phthalazin-6-yl)benzamide] | ≤ 5
